In US11344534B2, “Cholinergic agonism for the treatment of pancreatic cancer” (priority 2017, dated 2022):
“Also recorded” adds a separate entry of the source.

Legend:
[1] = test system: human PDAC cell lines (MiaPaca2, Panc1); assay: MTT assay, human PDAC cell lines; format: cell-based; conditions: for proliferation (MTT assay): 72 hours, 0.5% FBS medium
Description: (§1) Cell proliferation in each cell line was assessed with a 3-(4,5-dimethylthiazol-2yl)-2,5-diphenyltetrazolium bromide (MTT) assay kit (Sigma) in accordance with the manufacturer's instructions. 3×10^3 cells were grown in 96-well plate to around ˜70% confluent, changed the 0.5% FBS medium, added the drugs respectively and incubated them for further 72 hrs incubation in a typical CO2 incubator (˜20% O2). Treated cells were rinsed twice with PBS, incubated in 10 ll MTT solution for 4 hr at 37° C., and 100 uL DMSO was added to each well. The absorbance of each well was measured at 570 nm using Tilter-Tech 96-well multiscanner (Becton Dickinson, Heidelberg, Germany). The relative number of viable cells compared with the number of cells without drug treatment was expressed as percent cell viability using the following formula:
(§2) Cell proliferation in each cell line was assessed with a 3-(4,5-dimethylthiazol-2yl)-2,5-diphenyltetrazolium bromide (MTT) assay kit (Sigma) in accordance with the manufacturer's instructions. 3×10^3 cells were grown in 96-well plate to ˜70% confluency, the media was changed to 0.5% FBS medium, the respective drugs were added, and they were incubated for an additional 72 hours in a CO2 incubator (˜5% CO2). Treated cells were rinsed twice with PBS, incubated in 10 ul MTT (5 mg/ml PBS) solution for 4 hours at 37° C., and 100 uL DMSO was then added to each well. The absorbance of each well was measured at 570 nm using a Tilter-Tech 96-well multiscanner (Becton Dickinson, Heidelberg, Germany). The relative number of viable cells compared with the number of cells without drug treatment was expressed as percent cell viability using the following formula: cell viability (%)=A570 of treated cells/A570 of untreated cells.

human Panc1 cells = assay: Western blot of EGFR/MAPK and PI3K/AKT signaling, Panc1; format: cell-based; conditions: for phosphorylation of EGFR, BRAF, ERK1/2, PI3K and AKT kinases (western blot): 72 hours; for ratios of p-EGFR/EGFR, p-BRAF/BRAF, p-ERK/ERK, p-PI3K/PI3K and p-AKT/AKT (densitometry): single agent alone
Description: (§3) To analyze EGFR and the MAPK and PI3K-Akt pathway in human and murine pancreatic cancer cell lines, cells were grown in 12-well plate to around ˜70% confluent, changed the 0.5% FBS medium, added the drugs respectively and incubated them for further 72 hrs incubation in a typical CO2 incubator (˜20% O2). After removing the medium, cells were washed twice with PBS, and protein extraction was performed on ice using RIPA buffer with protease inhibitor (Complete) (Roche) cocktail and phosphatase inhibitor (phosSTOP) (Roche). Protein samples were subsequently separated in 10% Bis-Tris Gel NuPAGE® electrophoresis using MES SDS Running Buffer (Invitrogen, CA, USA). After transfer to nitrocellulose, membranes were blocked with 5% BSA, and samples were probed with the following primary antibodies: p-EGFR (Cell Signaling), EGFR (Cell Signaling), p-BRAF (Cell Signaling), BRAF (Cell Signaling), p-ERK1/2 (phosphorylated p44/42 MAPK) (Thr202/Tyr204) (Cell Signaling), ERK1/2 (p44/42 MAPK) (Thr202/Tyr204) (Cell Signaling), p-PI3K (Cell Signaling), PI3K (Cell Signaling), p-Akt (Cell Signaling), Akt (Cell Signaling), and β-actin (Cell Signaling) followed by horseradish peroxidase-coupled secondary antibody. Immunoreactive bands were visualized using 5-bromo-4-chloro-3-indolyl phosphate/nitro blue tetrazolium and bands were quantified with ImageJ.
(§4) To analyze EGFR, MAPK and PI3K-AKT pathways in human and murine pancreatic cancer cell lines, cells were grown in 12-well culture plates to ˜70% confluency. The medium was then changed to 0.5% FBS medium, the respective drugs were added, and they were incubated for an additional 72 hours in a CO2 incubator (˜5% CO2). After removing the medium, cells were washed twice with PBS, and protein extraction was performed on ice using RIPA buffer with protease inhibitor (Complete, Roche) cocktail and a phosphatase inhibitor (phosSTOP, Roche). Protein samples were subsequently separated by 10% Bis-Tris Gel NuPAGE® electrophoresis using MES SDS Running Buffer (Invitrogen, CA, USA). After transfer to nitrocellulose, membranes were blocked with 5% BSA, and samples were probed with the following primary antibodies: p-EGFR (Cell Signaling), EGFR (Cell Signaling), p-BRAF (Cell Signaling), BRAF (Cell Signaling), p-ERK1/2 (phosphorylated p44/42 MAPK) (Thr202/Tyr204) (Cell Signaling), ERK1/2 (p44/42 MAPK) (Thr202/Tyr204) (Cell Signaling), p-PI3K (Cell Signaling), PI3K (Cell Signaling), p-AKT (Cell Signaling), AKT (Cell Signaling), and β-actin (Cell Signaling) followed by horseradish peroxidase-coupled secondary antibody. Immunoreactive bands were visualized using 5-bromo-4-chloro-3-indolyl phosphate/nitro blue tetrazolium and bands were quantified with ImageJ.

[2] = test system: murine PDAC cell lines (Panc02, K8282); assay: MTT assay, murine PDAC cell lines; format: cell-based, mouse; conditions: for proliferation (MTT assay): 72 hours, 0.5% FBS medium
Description: as §1, §2

murine K8282 cells = assay: Western blot of EGFR/MAPK and PI3K/AKT signaling, K8282; format: cell-based, mouse; conditions: for phosphorylation of EGFR, BRAF, ERK1/2, PI3K and AKT kinases (western blot): 72 hours; for ratios of p-EGFR/EGFR, p-BRAF/BRAF, p-ERK/ERK, p-PI3K/PI3K and p-AKT/AKT (densitometry): single agent alone
Description: as §3, §4

[3] = test system: Kras^+/LSL-G12D mutant spheres; assay: 3D Matrigel sphere culture of Kras mutant (Ad-Cre) pancreatic acinar cells; format: cell-based, mouse; conditions: for number of spheres / size of spheres: day 5, pilocarpine 1 mM, scopolamine 10 μM, McN-34A 50 μM, pirenzepine 50 μM, vs controls; for sphere formation and growth of Kras mutant spheres: oncogenic K-Ras allele activated by adeno-Cre virus
Description: Cholinergic stimulation could in theory promote cancer indirectly through effects on stromal cells, or directly through effects on pancreatic epithelial cells. To determine whether cholinergic stimulation promoted tumor development in part through muscarinic receptors on cancer cells, the sphere forming capacity of K-Ras^+/LSL-G12D mutant pancreatic acinar cells was assessed in a 3D Matrigel culture system, with or without muscarinic stimulation. K-Ras^+/LSL-G12D mutant spheres were generated from K-Ras^+/LSL-G12D pancreatic acinar cells by treatment with adenoviral delivered Cre (Ad-Cre).
3D cultures were performed as described previously (Wescott et al., 2009). Organoids were cultured for 5 days before analysis. Adenoviral delivered Cre (Ad-Cre) was added to the cultures and medium was changed after 12 hours. […] Sphere size and […] were analyzed using ImageJ software.
To determine whether cholinergic stimulation suppresses tumor development in part through specific muscarinic receptors on cancer cells, the sphere forming capacity of Kras^+/LSL-G12D pancreatic acinar cells in a 3D Matrigel culture system in the absence and presence of muscarinic agonists and antagonists was assessed. Kras^+/LSL-G12D mutant spheres were generated from Kras^+/LSL-G12D mice by delivery of an adenoviral Cre (Ad-Cre).
3D cultures were performed as described previously^18. Organoids were cultured for 5 days before analysis. Adenoviral delivered Cre (Ad-Cre) was added to the cultures and medium was changed after 12 hours. […] Sphere size and number were analyzed using ImageJ software.

[4] = test system: Organoid cultures derived from LSL-K-Ras^G12D pancreata not treated by an Adeno-Cre virus; format: cell-based; conditions: no Adeno-Cre virus (Kras not activated)
KPC mice = KPC mice with established PDAC treated with gemcitabine with or without bethanechol; format: in vivo, mouse; conditions: KPC mice
Excerpt: Next, the role of cholinergic signaling in advanced pancreatic cancer was investigated using the genetically engineered KPC (K-Ras^+/LSL-G12D;p53^+/R172H;Pdx-1-Cre) mouse model, which develops ductal adenocarcinoma by 17-19 weeks (Olive et al., 2009, Hingorani et al., 2005).
K-Ras^+/LSL-G12D, p53^+/R172H, and Pdx-1-Cre mice were provided by Dr. Kenneth Olive (Columbia University). M1RKO mice were purchased from the Jackson Laboratory. KC mice and KPC mice were crossed with M1RKO mice. For several experiments, KC mice received pyloroplasty with or without vagotomy at 8 weeks and KC+VxPP mice were treated with or without bethanechol (400 μg/ml) after surgery immediately. They were sacrificed at 20 weeks. In addition, KPC mice were treated with gemcitabine biweekly and with or without bethanechol when the tumor size of 3-5 mm detected using ultrasound. They were sacrificed when the mice were moribund. For liver metastatic experiments, WT type C57/B6 mice received spleen injection and hemi-splenectomy. […] They were sacrificed when the mice were moribund.
Next, the role of cholinergic signaling in established PDAC was investigated using the KPC mouse model, which develops PDAC at a median age of 17-19 weeks^2, 29. KPC mice with pancreatic tumors that measured 3-5 mm in diameter on ultrasound were randomized to treatment with gemcitabine (GEM) alone, or GEM+bethanechol (FIG. 8I).
LSL-Kras^+/LSL-G12D, LSL-Trp53^+/R172H, and Pdx1-Cre mice were bred by Dr. Kenneth P. Olive and co-workers. Chrm1KO mice (C57BL/6-Chrm1tm1 Stl/J, (M1RKO) mice^1 were purchased from the Jackson Laboratory. KC mice and KPC mice were crossed with M1RKO mice. In the vagotomy experiments, KC mice received pyloroplasty with or without vagotomy at 8 weeks, and some KC+VxPP mice were treated with bethanechol ([…] in drinking water) immediately after surgery and then sacrificed at 20 weeks. KPC mice in treatment studies were palpated weekly for tumors in the pancreas. Once a tumor was suspected, KPC mice were screened by VEVO 2100—Ultrasound Imaging System (FUJIFILM VisualSonics) for pancreatic cancer. KPC mice were treated with gemcitabine, given by i.p. injection 100 mg/kg biweekly, with or without bethanechol, when a tumor size of 3-5 mm was detected using ultrasound. Mice were sacrificed when the mice were moribund. NOD/SCID mice were implanted with Panc1 cells subcutaneously and sacrificed at 30 days after implantation. For liver metastatic experiments, WT type C57/B6 mice received a splenic injection of labeled Panc02 cells, followed by hemi-splenectomy. The mice were then divided into three groups. […] Mice were then sacrificed when moribund. At necropsy, hepatic metastases that could clearly be identified as tumor nodules on gross inspection were separated. All animal studies and procedures were approved by the IACUC committee at Columbia University. All mice were bred under specific pathogen free conditions. Comparisons were made with age- and sex-matched control animals.
CD44, p-EGFR, p-PI3K, p-ERK, and Ki67 positive cells were quantified in at least five high power fields from at least 3 mice per group. Total cells per field were counted via morphometric analysis using ImageJ and the ratio of positive cells to total cell number calculated.

CHRM1 [5] = assay: qRT-PCR of muscarinic receptor expression, human PDAC cell lines; format: cell-based; conditions: human PDAC cell lines (MiaPaca2 and Panc1), compared to control
Chrm1 [6] = assay: qRT-PCR of muscarinic receptor expression, murine PDAC cell lines; format: cell-based, mouse; conditions: murine PDAC cell lines (Panc02 and K8282), compared to control

Row | SMILES | proliferation (MTT assay) [1] | increase in proliferation due to muscarinic antagonists ([1]; agonist added to antagonist) | phosphorylation of EGFR, BRAF, ERK1/2, PI3K and AKT kinases (western blot) (human Panc1 cells) | ratios of p-EGFR/EGFR, p-BRAF/BRAF, p-ERK/ERK, p-PI3K/PI3K and p-AKT/AKT (densitometry) (human Panc1 cells) | proliferation (MTT assay) [2] | increase in proliferation due to muscarinic antagonists ([2]; agonist added to antagonist) | phosphorylation of EGFR, BRAF, ERK1/2, PI3K and AKT kinases (western blot) (murine K8282 cells) | ratios of p-EGFR/EGFR, p-BRAF/BRAF, p-ERK/ERK, p-PI3K/PI3K and p-AKT/AKT (densitometry) (murine K8282 cells) | number of spheres [3] | size of spheres [3] | sphere formation and growth of Kras mutant spheres [3] | sphere forming capacity / growth of WT spheres [4] | overall survival (KPC mice; GEM with or without bethanechol) [days] | overall survival (KPC mice; tumors 3-5 mm at enrollment, GEM biweekly i.p. with or without bethanechol) [days] | Chrm1 expression (CHRM1 [5]) | Chrm1 expression (Chrm1 [6])
1 | C[N+](C)(C)CC#CCOC(=O)Nc1cccc(Cl)c1.[Cl-] [McN-34A] | suppressed | blocked; also recorded: inhibited to some extent | significantly less phosphorylated | significantly decreased | suppressed | blocked; also recorded: inhibited to some extent | significantly less phosphorylated | significantly decreased | significantly fewer | smaller | suppressed | increased |  |  |  | 
2 | Nc1ccn([C@@H]2O[C@H](CO)[C@@H](O)C2(F)F)c(=O)n1 [GEM] |  |  |  |  |  |  |  |  |  |  |  |  | 29 | 29 |  | 
3 | CN1CCN(CC(=O)N2c3ccccc3C(=O)Nc3cccnc32)CC1 [pirenzepine] | increased; also recorded: stimulated |  | significantly more phosphorylated | increased | increased; also recorded: stimulated |  | significantly more phosphorylated | increased | significantly more | larger | stimulated | significantly prevents |  |  |  | 
4 | CN1[C@@H]2C[C@@H](OC(=O)[C@H](CO)c3ccccc3)C[C@H]1[C@@H]1O[C@@H]12 [scopolamine] | increased; also recorded: stimulated |  | significantly more phosphorylated |  | increased |  | significantly more phosphorylated |  | significantly more; also recorded: increased | larger | increase |  |  |  | increased; also recorded: higher | increased; also recorded: higher
